According to paper PMC6009861, “Development of terphenyl-2-methyloxazol-5(4H)-one derivatives as selective reversible MAGL inhibitors” (Journal of Enzyme Inhibition and Medicinal Chemistry, 2017):

How the values were obtained:
[1] = target: T1, MAGL (Homo sapiens, UniProt Q99685); experiment: MAGL-inhibition assay (4-NPA substrate, absorbance 405 nm); format: biochemical; details: for MAGL/FAAH selectivity: ratio of FAAH IC50 to MAGL IC50 (fold)
T1 construct: purchased Cayman Chemical
T1 sequence (Q99685 1-303): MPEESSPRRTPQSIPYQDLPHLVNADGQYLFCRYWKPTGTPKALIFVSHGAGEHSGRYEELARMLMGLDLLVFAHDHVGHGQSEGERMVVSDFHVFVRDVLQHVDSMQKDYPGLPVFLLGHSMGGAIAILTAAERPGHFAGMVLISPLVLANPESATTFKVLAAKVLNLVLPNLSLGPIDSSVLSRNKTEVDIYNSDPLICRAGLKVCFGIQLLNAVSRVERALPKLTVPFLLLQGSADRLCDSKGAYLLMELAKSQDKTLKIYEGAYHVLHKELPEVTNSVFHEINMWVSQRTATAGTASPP
Protocol: Human recombinant MAGL, and 4-nitrophenylacetate substrate (4-NPA) were from Cayman Chemical. The IC50 values for compounds were generated in 96-well microtiter plates. The MAGL reaction was conducted at RT at a final volume of 200 µL in 10 mM Tris buffer, pH 7.2, containing 1 mM EDTA. A total of 150 µL of 4-NPA 133.3 µM (final concentration = 100 µM) was added to 10 µL of DMSO containing the appropriate amount of compound. The reaction was initiated by the addition of 40 µL of MAGL (11 ng/well) in such a way that the assay was linear over 30 min. […] After the reaction had proceeded for 30 min, absorbance values were then measured by using a VictorX3 PerkinElmer instrument at 405 nm. Two reactions were also run: one reaction containing no compounds and the second one containing neither inhibitor nor enzyme. IC50 values were derived from experimental data using the Sigmoidal dose–response fitting of GraphPad Prism software as reported earlier.

[2] = target: T2, human FAAH (Homo sapiens, UniProt O00519); experiment: FAAH inhibition assay (AMC arachidonoyl amide, fluorescence); format: biochemical; details: AMC arachidonoyl amide 10 µM, 30 min, RT
T2 sequence (O00519 1-579): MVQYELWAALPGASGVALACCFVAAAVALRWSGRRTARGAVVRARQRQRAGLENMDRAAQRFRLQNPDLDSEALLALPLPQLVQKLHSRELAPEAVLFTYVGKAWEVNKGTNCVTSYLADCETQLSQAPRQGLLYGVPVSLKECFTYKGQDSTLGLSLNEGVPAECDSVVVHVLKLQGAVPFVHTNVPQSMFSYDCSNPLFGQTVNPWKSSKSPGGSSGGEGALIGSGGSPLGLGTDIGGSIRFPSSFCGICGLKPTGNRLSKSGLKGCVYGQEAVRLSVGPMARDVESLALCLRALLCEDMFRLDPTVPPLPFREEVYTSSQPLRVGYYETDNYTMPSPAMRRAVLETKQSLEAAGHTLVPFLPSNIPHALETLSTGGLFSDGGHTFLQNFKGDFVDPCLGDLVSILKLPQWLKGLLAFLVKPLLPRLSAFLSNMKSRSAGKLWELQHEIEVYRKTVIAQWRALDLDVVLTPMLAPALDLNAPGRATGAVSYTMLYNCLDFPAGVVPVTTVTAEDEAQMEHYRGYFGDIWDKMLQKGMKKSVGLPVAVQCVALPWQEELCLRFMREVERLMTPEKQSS
Protocol: The IC50 values for compounds were generated in 96-well microtiter plates. The FAAH reaction was conducted at RT at a final volume of 200 µL in 125 mM Tris buffer, pH 9.0, containing 1 mM EDTA. A total of 150 µL of AMC arachidonoyl amide 13.3 µM (final concentration = 10 µM) was added to 10 µL of DMSO containing the appropriate amount of compound. The reaction was initiated by the addition of 40 µL of FAAH (0.9 µg/well) in such a way that the assay was linear over 30 min. After the reaction had proceeded for 30 min, fluorescence values were then measured by using a VictorX3 PerkinElmer instrument at an excitation wavelength of 340 nm and an emission of 460 nm. Two reactions were also run: one reaction containing no compounds and the second one containing neither inhibitor nor enzyme. IC50 values were derived from experimental data using the Sigmoidal dose − response fitting of GraphPad Prism software as reported earlier. To remove possible false-positive results, for each compound concentration, a blank analysis was carried out, and the final fluorescence results were obtained detracting the fluorescence produced by the presence of all the components except FAAH in the same conditions.

[3] = target: T1, MAGL; experiment: MAGL preincubation assay; format: biochemical; details: preincubation 0, 30 and 60 min with hMAGL
Protocol: The MAGL reaction was conducted at RT at a final volume of 200 µL in 10 mM Tris buffer, pH 7.2, containing 1 mM EDTA. A total of 150 µL of MAGL (11 ng/well) was added to 10 µL of DMSO containing the appropriate amount of compound. After 0, 30, and 60 min of incubation time the reaction was initiated by the addition of 40 µL of 4-NPA 500 µM. The enzyme activity was then measured according to the procedure described above.

[4] = target: T1, MAGL; experiment: MAGL dilution assay; format: biochemical; details: 10 µM incubated 60 min, then 40x dilution (final 0.25 µM)
Protocol: The enzyme (880 ng in 75 µL of Tris buffer, pH 7.2) was incubated during 60 min at RT with 5 µL of compound 20b (concentration of 10 µM in the mixture) dissolved in DMSO. The MAGL-inhibitor mixture was then diluted 40-fold with the buffer. After 15 min of incubation, the reaction was initiated on a 160 µL aliquot by the addition of 40 µL of 4-NPA 500 µM and the enzyme activity was measured according to the procedure described above.

[5] = test system: OVCAR3; experiment: Cell viability assay, OVCAR3; format: cell-based; details: OVCAR-3; OVCAR3 human ovarian cancer cells, 96 h
Protocol: (§1) COV318, OVCAR-3 (from ATCC) and hMSC (from AB Cell-Bio) were maintained at 37 °C in a humidified atmosphere containing 5% CO2 accordingly to the supplier. Normal (1.5 × 10^4) and tumor (5 × 10^2) cells were plated in 96-well culture plates. The day after seeding, vehicle or compounds were added at different concentrations to the medium. Compound was added to the cell culture at a concentration ranging from 200 to 0.02 µM. Cell viability was measured after 96 h according to the supplier (Promega, G7571) with a Tecan F200 instrument. IC50 values were calculated from logistical dose–response curves. Averages were obtained from three independent experiments, and error bars are standard deviations (n = 3).

[6] = test system: CAOV3; experiment: Cell viability assay, CAOV3; format: cell-based; details: Caov-3; CAOV3 human ovarian cancer cells, 96 h
[7] = test system: noncancerous human mesenchymal stem cells (hMSC); experiment: Cell viability assay, hMSC; format: cell-based; details: 96 h
Protocol: as §1

[8] = test system: EAE mouse model of multiple sclerosis; set-up: method as in PMID 25298214; details: cited from earlier work
[9] = human recombinant MAGL, 4-NPA 100 µM, 30 min, RT

Structure (SMILES)	IC50 [1, 9]	MAGL/FAAH selectivity [1]	IC50 [2]	other results
COc1nn(-c2ccc(NC(=O)OCc3ccccc3)c(C)c2)c(=O)o1 [CAY10499, reference compound]	0.144 ± 0.004 µM	0.1	0.0147 ± 0.0002 µM	–
CC1=N/C(=C\c2ccc(-c3ccccc3)c(-c3ccccc3)c2)C(=O)O1 [Compound 5, (Z)-4-[(1,1′:2′,1′′-Terphenyl)-4′-ylmethylene]-2-methyloxazol-5(4H)-one]	0.837 ± 0.018 µM	3	2.32 ± 0.051 µM	–
CC1=N/C(=C\c2ccc(-c3ccccc3)cc2-c2ccccc2)C(=O)O1 [Compound 7, (Z)-4-[(1,1′:3′,1′′-Terphenyl)-4′-ylmethylene]-2-methyloxazol-5(4H)-one]	0.546 ± 0.02 µM	33	18.2 ± 0.904 µM	–
CC1=N/C(=C\c2cccc(-c3ccccc3)c2-c2ccccc2)C(=O)O1 [Compound 9, (Z)-4-[(1,1′:2′,1′′-Terphenyl)-3′-ylmethylene]-2-methyloxazol-5(4H)-one]	2.56 ± 0.172 µM	8	20.1 ± 1.44 µM	–
CC1=N/C(=C\c2cc(-c3ccccc3)cc(-c3ccccc3)c2)C(=O)O1 [Compound 13, (Z)-4-[(1,1′:3′,1′′-Terphenyl)-5′-ylmethylene]-2-methyloxazol-5(4H)-one]	0.457 ± 0.01 µM	32	14.8 ± 1.18 µM	–
CC1=N/C(=C\c2cc(-c3cccc(F)c3)ccc2-c2cccc(F)c2)C(=O)O1 [Compound 20e, (Z)-4-{[3,3′′-Difluoro-(1,1′:4′,1′′-terphenyl)-2′-yl]methylene}-2-methyloxazol-5(4H)-one]	0.628 ± 0.032 µM	19	11.7 ± 0.895 µM	–
CC1=N/C(=C\c2cc(-c3ccc4c(c3)OCO4)ccc2-c2ccc3c(c2)OCO3)C(=O)O1 [Compound 20f, (Z)-4–[2,5-Bis(benzo[d][1,3]dioxol-5-yl)benzylidene]-2-methyloxazol-5(4H)-one]	0.673 ± 0.023 µM	35	23.7 ± 1.35 µM	–
COc1ccc(-c2ccc(-c3ccc(OC)c(F)c3)c(/C=C3\N=C(C)OC3=O)c2)cc1F [Compound 20g, (Z)-4-{[3,3′′-Difluoro-4,4′′-dimethoxy-(1,1′:4′,1′′-terphenyl)-2′-yl]methylene}-2-methyloxazol-5(4H)-one]	0.335 ± 0.002 µM	67	22.3 ± 1.24 µM	–
O=C(Oc1ccc([N+](=O)[O-])cc1)N1CCC(C(O)(c2ccc3c(c2)OCO3)c2ccc3c(c2)OCO3)CC1 [JZL-184, reference compound]	–	–	3.3 ± 0.205 µM	–
O=C(CCCCCc1ccc(-c2ccccc2)cc1)OCc1ccc2c(c1)OCO2 [c21]	–	–	–	Catalepsy or other motor impairments ([8]; mouse): not accompanied by catalepsy or other motor impairments; Effect on clinical progression in EAE mouse model ([8]; multiple sclerosis mouse model): ameliorated the clinical progression

Further lines, with some results ahead:

IC50 [1, 9]	MAGL/FAAH selectivity [1]	IC50 [2]	Structure (SMILES)	other results
0.32 ± 0.01 µM	34	10.9 ± 0.161 µM	CC1=N/C(=C\c2cc(-c3ccccc3)ccc2-c2ccccc2)C(=O)O1 [Compound 15, (Z)-4-[(1,1′:4′,1′′-Terphenyl)-2′-ylmethylene]-2-methyloxazol-5(4H)-one]	–
0.683 ± 0.05 µM	41	28 ± 1.31 µM	CC1=N/C(=C\c2cc(-c3ccc(F)cc3)ccc2-c2ccc(F)cc2)C(=O)O1 [Compound 20a, (Z)-4-{[4,4′′-Difluoro-(1,1′:4′,1′′-terphenyl)-2′-yl]methylene}-2-methyloxazol-5(4H)-one]	–
0.348 ± 0.038 µM	104	36.1 ± 1.12 µM	COc1ccc(-c2ccc(-c3ccc(OC)cc3)c(/C=C3\N=C(C)OC3=O)c2)cc1 [Compound 20b, (Z)-4-{[4,4′′-Dimethoxy-(1,1′:4′,1′′-terphenyl)-2′-yl]methylene}-2-methyloxazol-5(4H)-one]	Change of MAGL blocking ability (IC50) with preincubation time [3]: did not show any significant increase; Inhibition mechanism in dilution assay [4]: reversible inhibition; IC50 [5]: 41.6 µM; IC50 [6]: 23.8 µM; IC50 [7]: > 100 µM
4.19 ± 0.299 µM	4	17.7 ± 1.2 µM	CC1=N/C(=C\c2cc(-c3ccc(OC(F)(F)F)cc3)ccc2-c2ccc(OC(F)(F)F)cc2)C(=O)O1 [Compound 20c, (Z)-4-{[4,4′′-Bis(trifluoromethoxy)-(1,1′:4′,1′′-terphenyl)-2′-yl]methylene}-2-methyloxazol-5(4H)-one]	IC50 ([1]; approximate values): 4 to 6 µM
6.76 ± 1.13 µM	4	29 ± 1.16 µM	CC1=N/C(=C\c2cc(-c3ccc(C(F)(F)F)cc3)ccc2-c2ccc(C(F)(F)F)cc2)C(=O)O1 [Compound 20d, (Z)-4-{[4,4′′-Bis(trifluoromethyl)-(1,1′:4′,1′′-terphenyl)-2′-yl]methylene}-2-methyloxazol-5(4H)-one]	IC50 ([1]; approximate values): 4 to 6 µM
0.476 ± 0.039 µM	24	11.5 ± 0.998 µM	CC1=N/C(=C\c2cc(-c3ccc(Cl)cc3)ccc2-c2ccc(Cl)cc2)C(=O)O1 [Compound 20h, (Z)-4-{[4,4′′-Dichloro-(1,1′:4′,1′′-terphenyl)-2′-yl]methylene}-2-methyloxazol-5(4H)-one]	–
